Experiments:
[1] = target: T1, Keap1 Kelch domain (321-609) / TAMRA-labeled 16mer NRF2 peptide (ETGE motif) (Homo sapiens, UniProt Q14145); experiment: NRF2-Keap1 FP Assay (Keap1 Kelch fluorescence polarization); assay type: binding; conditions: 20 nM Keap1 (321-609), 8 nM Tamra labeled peptide
T1 construct: the Kelch domain (321-609) of Keap1 is used
Procedure, shortened: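 Compound dilutions (3-fold) were incubated 1 hr at room temperature with 20 nM Keap1 Kelch (321-609) and 8 nM TAMRA-labeled ETGE 16mer peptide. Buffer was 50 mM Tris pH 8.0, 100 mM NaCl, 5 mM MgCl2, 1 mM DTT, 2 mM CHAPS, 0.005% BSA. Fluorescence polarization (mP) was normalized to controls and fitted with a four-parameter equation to give pIC50.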

[2] = target: T2, full length Keap1 protein / full length NRF2 protein (Homo sapiens, UniProt Q14145); experiment: NRF2-Keap1 TR-FRET Low Protein Assay; assay type: binding; conditions: 1.25 nM Keap1 FlagHis and 2.5 nM biotin-NRF2 added
T2 construct: full length NRF2 protein and full length Keap1 protein (Keap1 exists a dimer) are used; His
Procedure, shortened: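 Flag-tagged full-length Keap1 was preincubated with compound (3-fold series) for 2.25 h at 37 °C in Tris pH 8.0/MgCl2/NaCl/BSA/DTT/CHAPS. Biotin-Avi-NRF2 (added at 2.5 nM) was then bound for 1.25 h at 4 °C. Eu-streptavidin/anti-Flag-APC TR-FRET (665/615 nm) was read after 1 h at RT, and pIC50 came from a four-parameter fit.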

T2 sequence (Q14145 whole entry): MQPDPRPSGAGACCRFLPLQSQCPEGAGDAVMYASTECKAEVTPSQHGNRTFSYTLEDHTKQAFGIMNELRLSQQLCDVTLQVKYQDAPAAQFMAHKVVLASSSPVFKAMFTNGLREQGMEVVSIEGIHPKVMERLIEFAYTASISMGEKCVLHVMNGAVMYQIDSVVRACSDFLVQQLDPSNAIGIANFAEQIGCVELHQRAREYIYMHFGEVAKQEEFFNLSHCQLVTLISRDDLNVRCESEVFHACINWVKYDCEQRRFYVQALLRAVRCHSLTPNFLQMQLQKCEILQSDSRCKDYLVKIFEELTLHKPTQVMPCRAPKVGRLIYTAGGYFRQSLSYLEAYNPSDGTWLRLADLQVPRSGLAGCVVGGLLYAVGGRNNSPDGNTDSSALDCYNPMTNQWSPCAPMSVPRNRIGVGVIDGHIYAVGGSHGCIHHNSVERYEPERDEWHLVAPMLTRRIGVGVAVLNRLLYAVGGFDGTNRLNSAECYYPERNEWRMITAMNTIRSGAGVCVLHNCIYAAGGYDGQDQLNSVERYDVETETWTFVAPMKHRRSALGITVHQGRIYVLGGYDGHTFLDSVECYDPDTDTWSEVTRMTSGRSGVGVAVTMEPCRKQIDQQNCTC
T1 sequence (Q14145 321-609): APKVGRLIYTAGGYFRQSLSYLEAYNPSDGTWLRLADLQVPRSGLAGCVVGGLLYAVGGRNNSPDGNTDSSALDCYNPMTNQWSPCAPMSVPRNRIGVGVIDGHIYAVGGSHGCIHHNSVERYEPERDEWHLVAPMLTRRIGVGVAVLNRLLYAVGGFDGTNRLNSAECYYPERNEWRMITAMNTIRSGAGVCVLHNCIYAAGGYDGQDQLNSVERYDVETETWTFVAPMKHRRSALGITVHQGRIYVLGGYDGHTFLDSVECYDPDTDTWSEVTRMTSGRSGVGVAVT

| Compound | IC50 [1] | IC50 [2] |
| --- | --- | --- |
| CCC[C@@H]1CO[C@@H](C)CN1C(=O)c1cccc(-c2cccc(-n3ncc(C(=O)O)c3C3CC3)c2)c1F [Example 45, 5-cyclopropyl-1-(3-{2-fluoro-3-[(2S,5R)-2-methyl-5-propylmorpholine-4-carbonyl]phenyl}phenyl)-1H-pyrazole-4-carboxylic Acid] | 10 to 100 nM | 10 to 100 nM |
| CCCC1CCCCN1C(=O)c1cccc(-c2cccc(-n3ncc(C(=O)O)c3C3CC3)c2)c1F (stereo in doubt) [Example 54d, 5-Cyclopropyl-1-{3-[2-fluoro-3-((2R)-2-propylpiperidine-1-carbonyl)phenyl]phenyl}-1H-pyrazole-4-carboxylic Acid] | 10 to 100 nM | 10 to 100 nM |
| O=C(O)c1cnn(-c2cccc(-c3cccc(C(=O)N4C5CCCC4CCC5)c3F)c2)c1C1CC1 [Example 34, 1-[3-(3-{9-azabicyclo[3.3.1]nonane-9-carbonyl}-2-fluorophenyl)phenyl]-5-cyclopropyl-1H-pyrazole-4-carboxylic Acid] | 10 to 100 nM | 10 to 100 nM |
| CC1CC(C)CN(C(=O)c2cccc(-c3cccc(-n4ncc(C(=O)O)c4[C@@H]4C[C@H]4c4cn(C)nn4)c3)c2F)C1 (mixture of isomers) [Example 263, 1-(3′-(3,5-Dimethylpiperidine-1-carbonyl)-2′-fluoro-[1,1′-biphenyl]-3-yl)-5-(2-(1-methyl-1H-1,2,3-triazol-4-yl)cyclopropyl)-1H-pyrazole-4-carboxylic Acid] | 10 to 100 nM | < 10 nM |
| O=C(O)c1cnn(-c2cccc(-c3cccc(C(=O)N(CC4CC4)CC4CC4)c3F)c2)c1C1CC1 [Example 8, 1-(3-{3-[Bis(cyclopropylmethyl)carbamoyl]-2-fluorophenyl}phenyl)-5-cyclopropyl-1H-pyrazole-4-carboxylic Acid] | 10 to 100 nM | 10 to 100 nM |
| CCOC[C@H]1CCCN1C(=O)c1cccc(-c2cccc(-n3ncc(C(=O)O)c3[C@@H]3C[C@H]3c3cn(C)nn3)c2)c1F [Example 268] | 10 to 100 nM | < 10 nM |
| O=C(O)c1cnn(-c2cccc(-c3cccc(C(=O)N4CCCC5CCCCC54)c3F)c2)c1C1CC1 (stereo not drawn) [Example 31, 5-Cyclopropyl-1-{3-[3-(decahydroquinoline-1-carbonyl)-2-fluorophenyl]phenyl}-1H-pyrazole-4-carboxylic Acid] | 100 to 1000 nM | 10 to 100 nM |
| CCC[C@@H]1CCCCN1C(=O)c1cccc(-c2cccc(-n3ncc(C(=O)O)c3C3CC3)c2)c1F [Example 54e, 5-Cyclopropyl-1-{3-[2-fluoro-3-((2-S)-2-propylpiperidine-1-carbonyl)phenyl]phenyl}-1H-pyrazole-4-carboxylic Acid] | 100 to 1000 nM | 100 to 1000 nM |
| CC1CCC(C)N(C(=O)c2cccc(-c3cccc(-n4ncc(C(=O)O)c4C4CC4)c3)c2F)C1 (stereo not drawn) [Example 30, 5-Cyclopropyl-1-{3-[3-(2,5-dimethylpiperidine-1-carbonyl)-2-fluorophenyl]phenyl}-1H-pyrazole-4-carboxylic Acid] | 10 to 100 nM | 100 to 1000 nM |
| CC(C)CC1CCCCN1C(=O)c1cccc(-c2cccc(-n3ncc(C(=O)O)c3C3CC3)c2)c1F (stereo not drawn) [Example 28, 5-Cyclopropyl-1-(3-{2-fluoro-3-[2-(2-methylpropyl)piperidine-1-carbonyl]phenyl}phenyl)-1H-pyrazole-4-carboxylic Acid] | 10 to 100 nM | 10 to 100 nM |
| C[C@@H]1CN(Cc2cccc(-c3cccc(-n4ncc(C(=O)O)c4[C@@H]4C[C@H]4c4cn(C)nn4)c3)c2)Cc2ccccc2O1 [Example 253] | 10 to 100 nM | < 10 nM |
| C[C@@H]1CCC[C@H](C)N1C(=O)c1cccc(-c2cccc(-n3ncc(C(=O)O)c3[C@@H]3C[C@H]3c3cn(C)nn3)c2)c1F (single isomer, unassigned) [Example 262] | 10 to 100 nM | < 10 nM |
| COCC1CCCCN1C(=O)c1cccc(-c2cccc(-n3ncc(C(=O)O)c3C3C[C@H]3c3cn(C)nn3)c2)c1F (mixture of isomers) [Example 264, 1-(3′-(2-(Methoxymethyl)piperidine-1-carbonyl)-2′-fluoro-[1,1′-biphenyl]-3-yl)-5-(trans-2-(1-methyl-1H-1,2,3-triazol-4-yl)cyclopropyl)-1H-pyrazole-4-carboxylic Acid] | 10 to 100 nM | < 10 nM |
| CC(C)Oc1cccc(-c2cccc(-n3ncc(C(=O)O)c3C3CC3c3cn(C)nn3)c2)c1 (stereo not drawn) [Example 59, 1-(3′-Isopropoxy-[1,1′-biphenyl]-3-yl)-5-(2-(1-methyl-1H-1,2,3-triazol-4-yl)cyclopropyl)-1H-pyrazole-4-carboxylic Acid] | 100 to 1000 nM | 100 to 1000 nM |
| O=C(O)c1cnn(-c2cccc(-c3cccc(C(=O)N4CCCC5(CCCC5)C4)c3F)c2)c1C1CC1 [Example 35, 1-[3-(3-{7-Azaspiro[4.5]decane-7-carbonyl}-2-fluorophenyl)phenyl]-5-cyclopropyl-1H-pyrazole-4-carboxylic Acid] | 10 to 100 nM | 10 to 100 nM |
| CC1CCCN(C(=O)c2cccc(-c3cccc(-n4ncc(C(=O)O)c4C4CC4)c3)c2F)CC1 (stereo not drawn) [Example 29, 5-Cyclopropyl-1-{3-[2-fluoro-3-(4-methylazepane-1-carbonyl)phenyl]phenyl}-1H-pyrazole-4-carboxylic Acid] | 10 to 100 nM | 10 to 100 nM |
| CC(C)CN(C)C(=O)c1cccc(-c2cccc(-n3ncc(C(=O)O)c3[C@@H]3C[C@H]3c3cn(C)nn3)c2)c1F (racemic) [Example 266, 1-(2′-Fluoro-3′(isobutyl(methyl)carbamoyl)-[1,1′-biphenyl]-3-yl)-5-(trans-2-(1-methyl-1H-1,2,3-triazol-4-yl)cyclopropyl)-1H-pyrazole-4-carboxylic Acid] | 10 to 100 nM | < 10 nM |
| Cn1cc([C@H]2C[C@@H]2c2c(C(=O)O)cnn2-c2cccc(-c3cccc(C(=O)N4CCCCCC4)c3F)c2)nn1 (racemic) [Example 260, 1-(2′-Fluoro-3′-(azepane-1-carbonyl)-[1,1′-biphenyl]-3-yl)-5-(trans-2-(1-methyl-1H-1,2,3-triazol-4-yl)cyclopropyl)-1H-pyrazole-4-carboxylic Acid] | 10 to 100 nM | < 10 nM |
| O=C(O)c1cnn(-c2cccc(-c3cccc(C(=O)N4CCCCC4CCC(F)(F)F)c3F)c2)c1C1CC1 (stereo not drawn) [Example 38, 5-Cyclopropyl-1-(3-{2-fluoro-3-[2-(3,3,3-trifluoropropyl)piperidine-1-carbonyl]phenyl}phenyl)-1H-pyrazole-4-carboxylic Acid] | 10 to 100 nM | 10 to 100 nM |
| Cn1cc([C@@H]2C[C@H]2c2c(C(=O)O)cnn2-c2cccc(-c3cccc(-n4ncc5c4C(C)(C)CC5)c3)n2)nn1 (racemic) [Example 251, 1-(6-(3-(6,6-Dimethyl-5,6-dihydrocyclopenta[c]pyrazol-1(4H)-yl)phenyl)pyridin-2-yl)-5-(trans-2-(1-methyl-1H-1,2,3-triazol-4-yl)cyclopropyl)-1H-pyrazole-4-carboxylic Acid] | 10 to 100 nM | < 10 nM |
| O=C(O)c1cnn(-c2cccc(-c3cccc(C(=O)N4CCCCC4C4CCCC4)c3F)c2)c1C1CC1 (stereo not drawn) [Example 33, 1-{3-[3-(2-Cyclopentylpiperidine-1-carbonyl)-2-fluorophenyl]phenyl}-5-cyclopropyl-1H-pyrazole-4-carboxylic Acid] | 10 to 100 nM | 10 to 100 nM |
| 1-(3′-((2-chlorocyclohexyl)methoxy)-[1,1′-biphenyl]-3-yl)-5-((1,2-trans)-2-(1-methyl-1H-1,2,3-triazol-4-yl)cyclopropyl)-1H-pyrazole-4-carboxylic acid [Example 186] | 100 to 1000 nM | 10 to 100 nM |
| CC1CC(C)CN(C(=O)c2cccc(-c3cccc(-n4ncc(C(=O)O)c4C4CC4)c3)c2F)C1 (stereo not drawn) [Example 53, 5-Cyclopropyl-1-[3′-(3,5-dimethyl-piperidine-1-carbonyl)-2′-fluoro-biphenyl-3-yl]-1H-pyrazole-4-carboxylic Acid] | 10 to 100 nM | 10 to 100 nM |
| C[C@@H]1CCC[C@H](C)N1C(=O)c1cccc(-c2cccc(-n3ncc(C(=O)O)c3[C@H]3C[C@@H]3c3cn(C)nn3)c2)c1F (single isomer, unassigned) [Example 261] | 10 to 100 nM | < 10 nM |
| CC1(C)CCc2cnn(-c3cccc(-c4cccc(-n5ncc(C(=O)O)c5C(F)(F)F)c4)c3)c21 [Example 250, 1-(3′-(6,6-Dimethyl-5,6-dihydrocyclopenta[c]pyrazol-1(4H)-yl)-[1,1′-biphenyl]-3-yl)-5-(trifluoromethyl)-1H-pyrazole-4-carboxylic Acid] | 100 to 1000 nM | 100 to 1000 nM |
| CC1(C)CCc2cnn(-c3cccc(-c4cccc(-n5ncc(C(=O)O)c5C5CC5)c4)c3)c21 [Example 63, 5-Cyclopropyl-1-(3′-(6,6-dimethyl-5,6-dihydrocyclopenta[c]pyrazol-1(4H)-yl)-[1,1′-biphenyl]-3-yl)-1H-pyrazole-4-carboxylic Acid] | 100 to 1000 nM | 10 to 100 nM |
| Cn1cc([C@@H]2C[C@H]2c2c(C(=O)O)cnn2-c2cccc(-c3cccc(CN4Cc5ccccc5OC(C)(C)C4)c3)c2)nn1 (racemic) [Example 254, 1-(3′-((2,2-Dimethyl-2,3-dihydrobenzo[f][1,4]oxazepin-4(5H)-yl)methyl)-[1,1′-biphenyl]-3-yl)-5-(trans-2-(1-methyl-1H-1,2,3-triazol-4-yl)cyclopropyl)-1H-pyrazole-4-carboxylic Acid] | 10 to 100 nM | 10 to 100 nM |

From patent US10364256B2 (GlaxoSmithKline Intellectual Property Development Limited, priority 2015, dated 2019)
